From ChEMBL document CHEMBL5678816, “A Next-Generation TRK Kinase Inhibitor Overcomes Acquired Resistance to Prior TRK Kinase Inhibition in Patients with TRK Fusion-Positive Solid Tumors” (Cancer Discov, 2017)
Activity calls are given as the source filed them. The rule behind the calls is not given here.

Assays:
[1] = Oral bioavailability in monkey at 10 mg/kg administered as 20% hydroxypropyl-beta-cyclodextrin formulation by LC-MS analysis; assay type: ADME, organism-based, Macaca mulatta; conditions: rhesus monkey, in vivo
[2] = Clearance in dog at 1 mg/kg, iv administered as 20% hydroxypropyl-beta-cyclodextrin formulation by LC-MS analysis; assay type: ADME, organism-based, Canis lupus familiaris; conditions: in vivo
NIH3T3 [3] = assay: In vivo inhibition of […] in nu/nu NCr mouse implanted with mouse NIH3T3 cells harboring extracellular domain deleted […] assessed as reduction in […] phosphorylation at 60 mg/kg, po administered once daily for 3 days and measured after 2 hrs post last dose by ELISA; assay type: functional, organism-based; conditions: time 3.0 day
NIH3T3 [4] = assay: Antitumor activity against mouse NIH3T3 cells harboring extracellular domain deleted TRKA implanted in nu/nu NCr mouse assessed as inhibition of tumor growth at 30 to 300 mg/kg, po administered twice daily for 10 days; assay type: functional, organism-based; conditions: dose 30-300 mg/kg, time 10.0 day
KM12 = assay: Antitumor activity against human KM12 cells harboring TPM3-TRKA fusion protein xenografted in nu/nu NCr mouse assessed as inhibition of tumor growth at 30 to 300 mg/kg, po administered twice daily for 11 days; assay type: functional, organism-based; conditions: dose 30-300 mg/kg, time 11.0 day
SHP77 = assay: Inhibition of cell proliferation in human SHP77 cells upto 10 umol/L incubated for 72 hrs by DAPI staining based analysis; assay type: functional; conditions: dose <= 10.0 µmol/L
Detroit 562 = assay: Inhibition of cell proliferation in human Detroit 562 cells upto 10 umol/L incubated for 72 hrs by DAPI staining based analysis; assay type: functional; conditions: dose <= 10.0 µmol/L
SK-LMS-1 = assay: Inhibition of cell proliferation in human SK-LMS-1 cells upto 10 umol/L incubated for 72 hrs by DAPI staining based analysis; assay type: functional; conditions: dose <= 10.0 µmol/L
DK-MG = assay: Inhibition of cell proliferation in human DK-MG cells upto 10 umol/L incubated for 72 hrs by DAPI staining based analysis; assay type: functional; conditions: dose <= 10.0 µmol/L
DMS-114 = assay: Inhibition of cell proliferation in human DMS-114 cells upto 10 umol/L incubated for 72 hrs by DAPI staining based analysis; assay type: functional; conditions: dose <= 10.0 µmol/L
TF-1 = assay: Inhibition of cell proliferation in human TF-1 cells upto 10 umol/L incubated for 72 hrs by DAPI staining based analysis; assay type: functional; conditions: dose <= 10.0 µmol/L
TT = assay: Inhibition of cell proliferation in human TT cells upto 10 umol/L incubated for 72 hrs by DAPI staining based analysis; assay type: functional; conditions: dose <= 10.0 µmol/L
[5] = Cmin in adult patient with recurrent LMNA-NTRK1 rearranged colorectal cancer at 100 mg administered twice a day as powder-in-capsule or liquid formulation for 22 day and measured 10 hrs post dose by LC-MS/MS analysis; assay type: ADME; conditions: human, in vivo, po, read-out: Cmin
[6] = AUC in pediatric patient with recurrent ETV6-NTRK3-rearranged infantile fibrosarcoma at 100 mg administered twice a day as liquid formulation for 29 day by LC-MS/MS analysis; assay type: ADME; conditions: human, in vivo
[7] = target: Macrophage colony-stimulating factor 1 receptor (Homo sapiens) (UniProt P07333); assay: Inhibition of Fms (unknown origin) at 1 uM in presence of ATP relative to control; values are per cent of control
Chain of Macrophage colony-stimulating factor 1 receptor (Homo sapiens) (P07333 whole entry): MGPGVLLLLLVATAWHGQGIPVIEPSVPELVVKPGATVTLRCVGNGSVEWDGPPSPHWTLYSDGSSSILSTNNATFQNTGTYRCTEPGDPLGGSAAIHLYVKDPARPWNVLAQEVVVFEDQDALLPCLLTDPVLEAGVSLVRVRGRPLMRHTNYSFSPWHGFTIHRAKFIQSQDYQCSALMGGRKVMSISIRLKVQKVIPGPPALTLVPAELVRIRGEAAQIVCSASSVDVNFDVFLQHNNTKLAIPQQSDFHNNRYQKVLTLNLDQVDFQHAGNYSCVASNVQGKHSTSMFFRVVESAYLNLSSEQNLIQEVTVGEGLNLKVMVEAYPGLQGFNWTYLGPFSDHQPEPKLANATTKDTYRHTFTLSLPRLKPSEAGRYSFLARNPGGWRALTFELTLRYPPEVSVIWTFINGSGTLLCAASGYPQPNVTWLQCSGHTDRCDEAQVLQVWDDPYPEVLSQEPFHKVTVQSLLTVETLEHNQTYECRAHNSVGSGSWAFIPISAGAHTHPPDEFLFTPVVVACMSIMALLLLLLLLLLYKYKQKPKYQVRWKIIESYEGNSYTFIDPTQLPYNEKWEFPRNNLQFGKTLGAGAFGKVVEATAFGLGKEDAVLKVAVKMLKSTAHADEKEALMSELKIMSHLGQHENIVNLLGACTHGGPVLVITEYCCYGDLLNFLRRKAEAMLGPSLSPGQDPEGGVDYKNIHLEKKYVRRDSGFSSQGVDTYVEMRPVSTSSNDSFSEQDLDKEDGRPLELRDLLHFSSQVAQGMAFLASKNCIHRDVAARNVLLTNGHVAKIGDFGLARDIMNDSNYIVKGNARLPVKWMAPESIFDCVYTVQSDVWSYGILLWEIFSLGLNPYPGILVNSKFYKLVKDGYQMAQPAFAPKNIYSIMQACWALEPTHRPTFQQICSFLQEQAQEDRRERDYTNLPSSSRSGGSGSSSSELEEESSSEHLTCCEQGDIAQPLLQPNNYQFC

[8] = target: Serine/threonine-protein kinase Sgk3 (Homo sapiens) (UniProt Q96BR1); assay: Inhibition of SGK3 (unknown origin) at 1 uM in presence of ATP relative to control; values are per cent of control
[9] = target: Serine/threonine-protein kinase PLK1 (Homo sapiens) (UniProt P53350); assay: Inhibition of Plk1 (unknown origin) at 1 uM in presence of ATP relative to control; values are per cent of control
[10] = target: Serine/threonine-protein kinase ULK3 (Homo sapiens) (UniProt Q6PHR2); assay: Inhibition of ULK3 (unknown origin) at 1 uM in presence of ATP relative to control; values are per cent of control
[11] = target: Serine/threonine-protein kinase PAK 4 (Homo sapiens) (UniProt O96013); assay: Inhibition of PAK4 (unknown origin) at 1 uM in presence of ATP relative to control; values are per cent of control
[12] = target: Vascular endothelial growth factor receptor 3 (Homo sapiens) (UniProt P35916); assay: Inhibition of FLt4 (unknown origin) at 1 uM in presence of ATP relative to control; values are per cent of control
[13] = target: Serine/threonine-protein kinase BRSK2 (Homo sapiens) (UniProt Q8IWQ3); assay: Inhibition of BrSK2 (unknown origin) at 1 uM in presence of ATP relative to control; values are per cent of control
Chain of Serine/threonine-protein kinase BRSK2 (Homo sapiens) (Q8IWQ3 whole entry): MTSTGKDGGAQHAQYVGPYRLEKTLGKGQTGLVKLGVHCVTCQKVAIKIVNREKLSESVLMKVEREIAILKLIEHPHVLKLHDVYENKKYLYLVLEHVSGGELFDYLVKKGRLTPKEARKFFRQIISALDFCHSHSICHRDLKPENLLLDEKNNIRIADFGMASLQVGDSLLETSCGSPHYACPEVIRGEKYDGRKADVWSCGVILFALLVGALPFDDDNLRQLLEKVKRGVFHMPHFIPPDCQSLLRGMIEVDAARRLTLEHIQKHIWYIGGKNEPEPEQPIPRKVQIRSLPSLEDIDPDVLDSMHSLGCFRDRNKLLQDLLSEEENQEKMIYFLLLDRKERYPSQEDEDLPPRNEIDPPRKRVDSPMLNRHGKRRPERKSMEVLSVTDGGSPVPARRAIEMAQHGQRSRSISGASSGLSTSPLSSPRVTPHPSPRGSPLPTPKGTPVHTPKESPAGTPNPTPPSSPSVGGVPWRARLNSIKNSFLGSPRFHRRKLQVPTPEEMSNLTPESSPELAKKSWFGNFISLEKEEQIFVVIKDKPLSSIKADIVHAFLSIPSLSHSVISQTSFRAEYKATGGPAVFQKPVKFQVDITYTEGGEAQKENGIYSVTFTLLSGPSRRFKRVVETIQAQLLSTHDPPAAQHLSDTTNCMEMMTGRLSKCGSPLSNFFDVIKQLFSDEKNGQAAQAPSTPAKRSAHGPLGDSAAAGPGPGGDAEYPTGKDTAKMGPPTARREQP

[14] = target: Homeodomain-interacting protein kinase 1 (Homo sapiens) (UniProt Q86Z02); assay: Inhibition of HIPK1 (unknown origin) at 1 uM in presence of ATP relative to control; values are per cent of control
Chain of Homeodomain-interacting protein kinase 1 (Homo sapiens) (Q86Z02 whole entry, looked up): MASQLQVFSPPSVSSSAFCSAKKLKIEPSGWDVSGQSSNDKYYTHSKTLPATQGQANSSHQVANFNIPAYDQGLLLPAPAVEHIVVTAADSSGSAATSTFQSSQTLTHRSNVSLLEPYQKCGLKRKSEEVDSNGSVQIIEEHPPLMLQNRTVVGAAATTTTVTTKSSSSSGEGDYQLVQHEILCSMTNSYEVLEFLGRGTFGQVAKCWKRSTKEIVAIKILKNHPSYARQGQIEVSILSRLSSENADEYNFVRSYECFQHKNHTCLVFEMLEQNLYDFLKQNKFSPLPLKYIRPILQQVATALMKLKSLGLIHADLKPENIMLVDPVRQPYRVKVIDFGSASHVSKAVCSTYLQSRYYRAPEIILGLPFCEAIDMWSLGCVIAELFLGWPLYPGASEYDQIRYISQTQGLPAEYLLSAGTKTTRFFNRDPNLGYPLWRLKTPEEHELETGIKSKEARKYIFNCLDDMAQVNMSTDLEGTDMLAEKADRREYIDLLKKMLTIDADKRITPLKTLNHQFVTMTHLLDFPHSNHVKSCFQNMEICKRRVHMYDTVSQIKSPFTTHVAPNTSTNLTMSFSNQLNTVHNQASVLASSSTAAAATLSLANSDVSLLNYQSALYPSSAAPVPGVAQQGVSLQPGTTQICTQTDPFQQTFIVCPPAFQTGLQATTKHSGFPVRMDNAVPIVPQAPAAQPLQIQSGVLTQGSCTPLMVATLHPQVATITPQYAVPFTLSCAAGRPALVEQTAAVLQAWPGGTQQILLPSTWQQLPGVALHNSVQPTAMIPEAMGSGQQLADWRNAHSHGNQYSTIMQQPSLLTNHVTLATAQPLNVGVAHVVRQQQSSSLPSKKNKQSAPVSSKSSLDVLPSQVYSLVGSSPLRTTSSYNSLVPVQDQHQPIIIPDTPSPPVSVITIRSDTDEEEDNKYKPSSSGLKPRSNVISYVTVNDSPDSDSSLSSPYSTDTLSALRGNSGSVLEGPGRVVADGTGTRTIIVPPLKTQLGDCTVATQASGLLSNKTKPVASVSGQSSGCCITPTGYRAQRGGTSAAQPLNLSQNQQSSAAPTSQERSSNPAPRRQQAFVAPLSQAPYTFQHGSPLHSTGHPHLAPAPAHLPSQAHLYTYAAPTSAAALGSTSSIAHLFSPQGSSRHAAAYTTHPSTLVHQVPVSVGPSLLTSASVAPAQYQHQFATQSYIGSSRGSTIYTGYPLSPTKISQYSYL

[15] = target: Homeodomain-interacting protein kinase 3 (Homo sapiens) (UniProt Q9H422); assay: Inhibition of HIPK3 (unknown origin) at 1 uM in presence of ATP relative to control; values are per cent of control
Chain of Homeodomain-interacting protein kinase 3 (Homo sapiens) (Q9H422 whole entry, looked up): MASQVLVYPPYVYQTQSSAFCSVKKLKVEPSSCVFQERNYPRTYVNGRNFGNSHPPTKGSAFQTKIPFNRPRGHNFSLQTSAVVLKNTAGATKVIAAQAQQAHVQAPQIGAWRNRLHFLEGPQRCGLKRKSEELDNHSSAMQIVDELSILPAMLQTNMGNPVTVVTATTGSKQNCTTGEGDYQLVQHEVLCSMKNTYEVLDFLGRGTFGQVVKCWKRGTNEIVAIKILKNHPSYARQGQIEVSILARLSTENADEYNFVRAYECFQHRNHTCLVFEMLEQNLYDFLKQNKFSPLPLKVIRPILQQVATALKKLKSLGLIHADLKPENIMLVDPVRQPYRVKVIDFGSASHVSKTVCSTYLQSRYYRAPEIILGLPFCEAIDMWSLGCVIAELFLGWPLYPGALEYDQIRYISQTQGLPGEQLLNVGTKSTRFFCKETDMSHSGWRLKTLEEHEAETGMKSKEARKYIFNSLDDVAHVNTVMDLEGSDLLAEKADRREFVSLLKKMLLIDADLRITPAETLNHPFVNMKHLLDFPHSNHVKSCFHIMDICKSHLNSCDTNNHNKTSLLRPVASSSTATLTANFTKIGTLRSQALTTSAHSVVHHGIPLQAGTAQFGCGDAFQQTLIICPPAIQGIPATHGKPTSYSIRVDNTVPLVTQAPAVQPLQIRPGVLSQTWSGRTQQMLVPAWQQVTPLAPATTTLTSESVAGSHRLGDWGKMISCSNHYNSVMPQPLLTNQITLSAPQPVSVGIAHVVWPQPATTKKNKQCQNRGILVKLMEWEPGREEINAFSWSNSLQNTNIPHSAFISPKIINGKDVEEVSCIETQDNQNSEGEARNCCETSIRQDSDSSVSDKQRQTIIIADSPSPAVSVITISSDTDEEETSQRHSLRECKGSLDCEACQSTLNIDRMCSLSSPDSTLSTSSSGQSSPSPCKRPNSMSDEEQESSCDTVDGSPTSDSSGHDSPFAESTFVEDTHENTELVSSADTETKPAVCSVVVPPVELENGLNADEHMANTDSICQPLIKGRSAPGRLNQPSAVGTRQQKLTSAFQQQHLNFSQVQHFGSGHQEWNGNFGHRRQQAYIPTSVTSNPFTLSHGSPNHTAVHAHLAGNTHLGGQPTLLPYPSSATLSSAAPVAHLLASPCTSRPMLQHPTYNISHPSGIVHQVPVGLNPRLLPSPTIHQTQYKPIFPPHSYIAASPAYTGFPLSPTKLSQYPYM

[16] = target: Aurora kinase A (Homo sapiens) (UniProt O14965); assay: Inhibition of AURKA (unknown origin) at 1 uM in presence of ATP relative to control; values are per cent of control
[17] = target: Calcium/calmodulin-dependent protein kinase type 1D (Homo sapiens) (UniProt Q8IU85); assay: Inhibition of CAMK1d (unknown origin) at 1 uM in presence of ATP relative to control; values are per cent of control
Chain of Calcium/calmodulin-dependent protein kinase type 1D (Homo sapiens) (Q8IU85 whole entry, looked up): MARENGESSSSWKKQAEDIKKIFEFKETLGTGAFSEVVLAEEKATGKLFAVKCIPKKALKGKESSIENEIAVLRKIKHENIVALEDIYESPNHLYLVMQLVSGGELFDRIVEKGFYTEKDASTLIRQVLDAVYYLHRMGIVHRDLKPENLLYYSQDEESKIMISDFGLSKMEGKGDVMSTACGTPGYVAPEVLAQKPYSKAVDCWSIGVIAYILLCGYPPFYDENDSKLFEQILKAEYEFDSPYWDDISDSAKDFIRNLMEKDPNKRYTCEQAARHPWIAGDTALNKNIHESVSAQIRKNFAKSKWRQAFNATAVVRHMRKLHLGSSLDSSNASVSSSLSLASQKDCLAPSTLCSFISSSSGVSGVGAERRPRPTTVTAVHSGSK

[18] = target: Tyrosine-protein kinase ZAP-70 (Homo sapiens) (UniProt P43403); assay: Inhibition of ZAP-70 (unknown origin) at 1 uM in presence of ATP relative to control; values are per cent of control
[19] = target: Inhibitor of nuclear factor kappa-B kinase subunit beta (Homo sapiens) (UniProt O14920); assay: Inhibition of IKKbeta (unknown origin) at 1 uM in presence of ATP relative to control; values are per cent of control
[20] = target: Protein kinase C beta type (Homo sapiens) (UniProt P05771); assay: Inhibition of PKCbetal (unknown origin) at 1 uM in presence of ATP relative to control; values are per cent of control
[21] = target: Casein kinase I isoform gamma-1 (Homo sapiens) (UniProt Q9HCP0); assay: Inhibition of CK1gamma1 (unknown origin) at 1 uM in presence of ATP relative to control; values are per cent of control
Chain of Casein kinase I isoform gamma-1 (Homo sapiens) (Q9HCP0 whole entry, looked up, canonical isoform): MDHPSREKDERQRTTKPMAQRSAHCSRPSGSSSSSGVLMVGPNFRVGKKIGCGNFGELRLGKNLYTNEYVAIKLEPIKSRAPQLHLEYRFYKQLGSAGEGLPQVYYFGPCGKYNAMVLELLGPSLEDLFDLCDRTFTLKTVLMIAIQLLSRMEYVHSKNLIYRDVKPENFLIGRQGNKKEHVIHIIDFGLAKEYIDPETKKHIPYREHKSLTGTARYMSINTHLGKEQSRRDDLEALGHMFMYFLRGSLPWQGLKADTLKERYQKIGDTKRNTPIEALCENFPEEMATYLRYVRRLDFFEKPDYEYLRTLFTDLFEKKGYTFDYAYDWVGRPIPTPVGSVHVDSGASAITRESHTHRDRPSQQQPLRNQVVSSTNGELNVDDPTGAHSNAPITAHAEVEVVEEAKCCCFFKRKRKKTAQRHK

Homo sapiens = species: Homo sapiens; assay: Inhibition of TEC Activated (unknown origin) at 1 uM in presence of ATP relative to control; values are per cent of control

## C[C@@H]1CCc2ncc(F)cc2[C@H]2CCCN2c2ccn3ncc(c3n2)C(=O)N1 [SELITRECTINIB]
[1]
  bioavailability: 2%
[2]
  clearance: 12.8 mL/min/kg
NIH3T3 [3]
  inhibition: Active
NIH3T3 [4]
  Activity: Active
KM12
  Activity: Active
SHP77
  inhibition: inactive
Detroit 562
  inhibition: inactive
SK-LMS-1
  inhibition: inactive
DK-MG
  inhibition: inactive
DMS-114
  inhibition: inactive
TF-1
  inhibition: inactive
TT
  inhibition: inactive
[5]
  concentration at 538 h: 14.7 ng/mL
[6]
  AUC at 696 h: 4410 ng·h/mL
[7]
  residual activity: 87.5%
[8]
  residual activity: 114%
[9]
  residual activity: 104%
[10]
  residual activity: 95.5%
[11]
  residual activity: 101%
[12]
  residual activity: 90%
[13]
  residual activity: 124%
[14]
  residual activity: 106%
[15]
  residual activity: 105%
[16]
  residual activity: 97%
[17]
  residual activity: 116%
[18]
  residual activity: 118%
[19]
  residual activity: 119%
[20]
  residual activity: 108%
[21]
  residual activity: 112%
Homo sapiens
  residual activity: 112%
